≈ marks a conversion by molar mass, not a printed value. Calls of active or inactive are those of the source. The calls are words filed in the database; no cut-off is given here.
How the values were obtained:
[1] = system: Erythrocyte; test: Hemolytic activity in sheep red blood cells assessed as hemolysis at 64 ug/ml incubated for 30 mins relative to control; type: toxicity, cell-based, Ovis aries; conditions: 0.5 h, at 64 µg/mL
[2] = system: Staphylococcus aureus; test: Antimicrobial activity against clinical isolate Staphylococcus aureus Smu109 assessed as inhibition of growth measured after 20 to 24 hrs incubation by CLSI method; type: functional; conditions: time 20-24 hrs
[3] = system: Staphylococcus aureus; test: Antimicrobial activity against Staphylococcus aureus ATCC 25923 assessed as inhibition of visible growth measured after 20 to 24 hrs incubation by CLSI method; type: functional; conditions: time 20-24 hrs
[4] = system: Staphylococcus aureus; test: Antimicrobial activity against antibiotic-resistant Staphylococcus aureus ATCC BAA-2312 assessed as inhibition of visible growth measured after 20 to 24 hrs incubation by CLSI method; type: functional; conditions: time 20-24 hrs
[5] = system: Staphylococcus aureus; test: Antimicrobial activity against antibiotic-resistant Staphylococcus aureus ATCC 33591 assessed as inhibition of visible growth measured after 20 to 24 hrs incubation by CLSI method; type: functional; conditions: time 20-24 hrs
[6] = system: Staphylococcus aureus; test: Antimicrobial activity against antibiotic-resistant Staphylococcus aureus ATCC 33592 assessed as inhibition of visible growth measured after 20 to 24 hrs incubation by CLSI method; type: functional; conditions: time 20-24 hrs
[7] = system: Bacillus subtilis; test: Antimicrobial activity against antibiotic-resistant Bacillus subtilis ATCC 6623 assessed as inhibition of visible growth measured after 20 to 24 hrs incubation by CLSI method; type: functional; conditions: time 20-24 hrs
[8] = system: HEK293; test: Cytotoxicity against human HEK293 cells assessed as cell viability measured after 24 hrs by resazurin assay; type: toxicity, cell-based
[9] = system: Panel NCI-60 (60 carcinoma cell lines); test: Cytotoxicity against human panel NCI-60 (60 carcinoma cell lines)cells assessed as cell viability at 10 uM measured after 24 hrs by resazurin assay; type: functional, cell-based
[10] = system: Erythrocyte; test: Hemolytic activity in sheep red blood cells assessed as hemolysis at 16 to 32 ug/ml incubated for 30 mins relative to control; type: toxicity, cell-based, Ovis aries; conditions: 0.5 h, dose 16-32 µg/ml
[11] = system: Staphylococcus aureus; test: Antimicrobial activity against methicilline-resistant Staphylococcus aureus ATCC 700699 persisters assessed as reduction in initial persister concentration at 16 times of MIC concentration measured for 6 hrs by Persisters time course assay; type: functional, organism-based
[12] = system: Staphylococcus aureus; test: Antimicrobial activity against methicilline-resistant Staphylococcus aureus ATCC 700699 persisters assessed as reduction in initial persister concentration at 8 times of MIC concentration measured for 8 hrs by Persisters time course assay; type: functional
[13] = system: Staphylococcus aureus; test: Antimicrobial activity against methicilline-resistant Staphylococcus aureus ATCC 700699 persisters assessed as reduction in initial persister concentration at 2 times of MIC concentration measured for 2 to 8 hrs by Persisters time course assay; type: functional, organism-based; conditions: time 2-8 hrs
[14] = system: Staphylococcus aureus; test: Antimicrobial activity against Staphylococcus aureus ATCC 25923 assessed as inhibition of biofilm formation by measuring prevention of turbidity after 24 hrs incubation by Real-time monitoring method; type: functional
[15] = system: Staphylococcus aureus; test: Antimicrobial activity against antibiotic-susceptible Staphylococcus aureus ATCC 25923 assessed as inhibition of biofilm formation by measuring prevention of turbidity after 24 hrs incubation by Real-time monitoring method; type: functional
[16] = system: Enterococcus faecalis; test: Antimicrobial activity against Enterococcus faecalis ATCC 29212 assessed as inhibition of biofilm formation by measuring prevention of turbidity after 24 hrs incubation by Real-time monitoring method; type: functional
[17] = system: Enterococcus faecium; test: Antimicrobial activity against Enterococcus faecium […] assessed as inhibition of biofilm formation after 24 hrs incubation by Real-time monitoring method; type: functional
[18] = system: Enterococcus faecalis; test: Antimicrobial activity against antibiotic-susceptible Enterococcus faecalis ATCC 29212 assessed as inhibition of biofilm formation by measuring prevention of turbidity after 24 hrs incubation by Real-time monitoring method; type: functional
[19] = system: Staphylococcus aureus; test: Antimicrobial activity against antibiotic-susceptible Staphylococcus aureus ATCC 25923 assessed as inhibition of biofilm formation on plastic coverslips at 0.5 times of MIC measured after 24 hrs by electron microscopy; type: functional, organism-based
[20] = system: Staphylococcus aureus; test: In vivo antimicrobial activity against Staphylococcus aureus USA300 infected in Caenorhabditis elegans AU37 nematodes assessed as viability of nematodes incubated for 5 days by susceptibility test; type: functional; conditions: USA300, 120 h, time 5 day
[21] = system: Staphylococcus aureus; test: In vivo antimicrobial activity against Staphylococcus aureus Newman infected in Caenorhabditis elegans AU37 nematodes assessed as viability of nematodes incubated for 5 days by susceptibility test; type: functional; conditions: 120 h, time 5 day
[22] = system: Staphylococcus aureus; test: In vivo antimicrobial activity against Staphylococcus aureus UAMS-1 infected in Caenorhabditis elegans AU37 nematodes assessed as viability of nematodes incubated for 5 days by susceptibility test; type: functional; conditions: UAMS-1, 120 h, time 5 day
[23] = Toxicity in Caenorhabditis elegans AU37 assessed as survival at 20 ug/ml measured for 4 days; conditions: at 20 µg/mL, time 4 day
[24] = Toxicity in Caenorhabditis elegans AU37 assessed as survival at 4 ug/ml measured for 4 days; conditions: 96 h, dose 4 µg/ml, time 4 day
[25] = system: Cell membrane; test: Induction of membrane permeability in Staphylococcus aureus ATCC 700699 assessed as increase in fluorescence at 0.5 to 2 times of MIC incubated for 15 mins measured for 1 hr by propidium iodide/real time fluorescence based flow cytometry; type: subcellular; conditions: time 75.0 min
[26] = system: Cell membrane; test: Induction of membrane permeability in Staphylococcus aureus ATCC 700699 assessed as increase in fluorescence at 8 times of MIC incubated for 15 mins measured for 1 hr by propidium iodide/real time fluorescence based flow cytometry; type: subcellular
[27] = system: Cell membrane; test: Induction of membrane permeability in Staphylococcus aureus ATCC 700699 assessed as increase in fluorescence intensity at 4 times of MIC incubated for 15 mins measured for 1 hr by propidium iodide/real time fluorescence based flow cytometry Rvb = 3.5); conditions: time 75.0 min
[28] = system: Cell membrane; test: Induction of membrane permeability in Staphylococcus aureus ATCC 700699 assessed as increase in fluorescence intensity at 1 times of MIC incubated for 15 mins measured for 1 hr by propidium iodide/real time fluorescence based flow cytometry Rvb = 3.5); conditions: time 75.0 min
[29] = system: Cell membrane; test: Induction of membrane permeability in Staphylococcus aureus ATCC 700699 assessed as increase in fluorescence intensity at 2 times of MIC incubated for 15 mins measured for 1 hr by propidium iodide/real time fluorescence based flow cytometry Rvb = 3.5); type: subcellular; conditions: time 75.0 min
[30] = system: Cell membrane; test: Induction of membrane damage in Staphylococcus aureus ATCC 700699 assessed as cell surface damage at 1 to 4 times of MIC measured after 30 mins by Scanning electron microscopy; type: subcellular
[31] = system: Staphylococcus aureus; test: Antimicrobial activity against Staphylococcus aureus UAB159 assessed as inhibition of growth measured after 20 to 24 hrs incubation by CLSI method; type: functional; conditions: time 20-24 hrs
[32] = system: Staphylococcus aureus; test: Antimicrobial activity against clinical isolate Staphylococcus aureus Smu9 assessed as inhibition of growth measured after 20 to 24 hrs incubation by CLSI method; type: functional; conditions: time 20-24 hrs
[33] = system: Staphylococcus aureus; test: Antimicrobial activity against clinical isolate Staphylococcus aureus Smu21 assessed as inhibition of growth measured after 20 to 24 hrs incubation by CLSI method; type: functional; conditions: time 20-24 hrs
[34] = system: Staphylococcus aureus; test: Antimicrobial activity against clinical isolate Staphylococcus aureus Smu57 assessed as inhibition of growth measured after 20 to 24 hrs incubation by CLSI method; type: functional; conditions: time 20-24 hrs
[35] = system: Staphylococcus aureus; test: Antimicrobial activity against clinical isolate Staphylococcus aureus Smu81 assessed as inhibition of growth measured after 20 to 24 hrs incubation by CLSI method; type: functional; conditions: time 20-24 hrs
[36] = system: Staphylococcus aureus; test: Antimicrobial activity against antibiotic-resistant Staphylococcus aureus ATCC 700699 assessed as inhibition of visible growth measured after 20 to 24 hrs incubation by CLSI method; type: functional; conditions: time 20-24 hrs
[37] = system: Staphylococcus epidermidis; test: Antimicrobial activity against antibiotic-resistant Staphylococcus epidermidis ATCC 700296 assessed as inhibition of visible growth measured after 20 to 24 hrs incubation by CLSI method; type: functional; conditions: time 20-24 hrs
[38] = system: Enterococcus faecalis; test: Antimicrobial activity against antibiotic-susceptible Enterococcus faecalis ATCC 29212 assessed as inhibition of visible growth measured after 20 to 24 hrs incubation by CLSI method; type: functional; conditions: time 20-24 hrs
[39] = system: Enterococcus faecalis; test: Antimicrobial activity against antibiotic-resistant Enterococcus faecalis ATCC 51299 assessed as inhibition of visible growth measured after 20 to 24 hrs incubation by CLSI method; type: functional; conditions: time 20-24 hrs
[40] = system: Enterococcus faecium; test: Antimicrobial activity against antibiotic-resistant Enterococcus faecium ATCC 700221 assessed as inhibition of visible growth measured after 20 to 24 hrs incubation by CLSI method; type: functional; conditions: time 20-24 hrs
[41] = system: Staphylococcus aureus; test: Bactericidal activity in antibiotic-resistant Staphylococcus aureus ATCC 700699 assessed as reduction in viable cell count at 4 times of MIC measured upto 24 hrs by time kill assay; type: functional, organism-based
[42] = system: Staphylococcus aureus; test: Antimicrobial activity against methicilline-resistant Staphylococcus aureus ATCC 700699 persisters assessed as bacterial killing at 32 time of MIC concentration measured for every 2 hrs upto 8 hrs by Persisters time course assay; type: functional, organism-based
[43] = system: Staphylococcus aureus; test: Antimicrobial activity against Staphylococcus aureus ATCC 25923 assessed as eradication of biofilm measured after 24 hrs incubation by Calgary method; type: functional
[44] = system: Enterococcus faecalis; test: Antimicrobial activity against antibiotic-susceptible Enterococcus faecalis ATCC 29212 assessed as eradication of biofilm measured after 24 hrs incubation by Calgary method; type: functional

SMILES	MIC [2] [µg/mL]	MIC [3] [µg/mL]	MIC [4] [µg/mL]	MIC [5] [µg/mL]	MIC [6] [µg/mL]	MIC [7] [µg/mL]	Activity [9]	MIC [20] [µg/mL]	MIC [21] [µg/mL]	MIC [22] [µg/mL]	MIC [31] [µg/mL]	MIC [32] [µg/mL]	MIC [33] [µg/mL]	MIC [34] [µg/mL]	MIC [35] [µg/mL]	also measured
O=C(O)c1ccc(-n2cc(CNc3cc(Br)cc(C(F)(F)F)c3)c(-c3ccc(F)c(F)c3)n2)cc1	2 (≈ 3.62 µM)	1 (≈ 1.81 µM)	1 (≈ 1.81 µM)	1 (≈ 1.81 µM)	1 (≈ 1.81 µM)	0.5 (≈ 0.905 µM)	inactive	1 (≈ 1.81 µM)	1 (≈ 1.81 µM)	1 (≈ 1.81 µM)	4 (≈ 7.24 µM)	2 (≈ 3.62 µM)	2 (≈ 3.62 µM)	2 (≈ 3.62 µM)	4 (≈ 7.24 µM)	Activity [1]: < 10%; IC50 [8]: 27 µg/mL (≈ 48.9 µM); Activity [10]: Non-Toxic; Activity [11]: Active; log(activity) [12]: 6; Activity [13]: inactive; MIC [14]: 2 µg/mL (≈ 3.62 µM); MBBC [15]: 8 µg/mL; MIC [16]: 4 µg/mL (≈ 7.24 µM); MBIC [17]: 4 µg/mL; MBBC [18]: 8 µg/mL; Activity [19]: Active; survival at 96 h, 20 ug/ml [23]: > 80%; Activity [24]: Non-Toxic; Activity [25]: inactive; Activity [26]: inactive; Activity [27]: 96.7%; Activity [28]: 18.5%; Activity [29]: 32.8%; Activity [30]: Active
O=C(O)c1ccc(-n2cc(CNc3cc(Cl)c(F)c(Cl)c3)c(-c3ccc(C(F)(F)F)cc3)n2)cc1	2 (≈ 3.81 µM)	–	–	–	–	–	–	–	–	–	2 (≈ 3.81 µM)	2 (≈ 3.81 µM)	2 (≈ 3.81 µM)	2 (≈ 3.81 µM)	2 (≈ 3.81 µM)	–
O=C(O)c1ccc(-n2cc(CNc3cc(Cl)cc(Cl)c3)c(-c3ccc(C(F)(F)F)cc3)n2)cc1	2 (≈ 3.95 µM)	–	–	–	–	–	–	–	–	–	2 (≈ 3.95 µM)	1 (≈ 1.98 µM)	2 (≈ 3.95 µM)	2 (≈ 3.95 µM)	2 (≈ 3.95 µM)	–
O=C(O)c1ccc(-n2cc(CNc3cc(Br)cc(C(F)(F)F)c3)c(-c3cccc(F)c3)n2)cc1	–	2 (≈ 3.74 µM)	1 (≈ 1.87 µM)	1 (≈ 1.87 µM)	2 (≈ 3.74 µM)	1 (≈ 1.87 µM)	inactive	1 (≈ 1.87 µM)	1 (≈ 1.87 µM)	1 (≈ 1.87 µM)	–	–	–	–	–	MIC [36]: 2 µg/mL (≈ 3.74 µM); MIC [37]: 4 µg/mL (≈ 7.49 µM); MIC [38]: 4 µg/mL (≈ 7.49 µM); MIC [39]: 4 µg/mL (≈ 7.49 µM); MIC [40]: 2 µg/mL (≈ 3.74 µM); Activity [41]: Active; Activity [42]: Active; MBEC [43]: 4 µg/mL; MBEC [44]: 4 µg/mL
